# Tests used:
# [1] = test system: WM278, Me300 and SK-MEL37 melanoma cell lines; experiment: p53-dependent apoptosis assay (subG1 DNA content, PI/FACS), Example 8; format: cell-based, human; details: 0.3 μM K00616a, 20 μM nutlin3, 1 μM PLX4032, agent alone, 72 hours
# [2] = test system: WM278, Me300 and SK-MEL37 melanoma cells; experiment: apoptosis by Annexin V / Sub-G1 FACS analysis, Example 10, human melanoma cells; format: cell-based; details: for apoptosis: agent alone, JNJ 0.4 μM, Nutlin3 10-20 μM, 72 hours, melanoma cell lines
# Experimental: (§1) FIG. 20. Restoring p53 by inhibiting mdm2 and iASPP suppresses melanoma growth in vitro and in vivo. FIG. 20A. H1299 cells were treated with DMSO or 10 μM nocodazole in the presence or absence of 2 or 10 μM of mitosis-related kinase inhibitors as indicated. […] FIG. 20B. Left panel: representative p53 level after Nutlin3 treatment for 24 hours in a variety of cells. Right bar graphs show the sub-G1 proportion of WM278 after treatment as that described in FIG. 19B (in upper panel, 10 μM and 20 μM Nutlin3 were used in parallel for comparison). From left to right of the upper right bar graph of FIG. 20B, the bars correspond to DMSO, Nut and JNJ+Nut, respectively. From left to right of the bottom bar graph of FIG. 20B, the bars correspond to DMSO, JNJ, Nut and JNJ+Nut, respectively. FIG. 20C. Me300, SK-MEL37, and B16 cells were treated as above (For B16 panel, 10 μM Nutlin3 was used) and sub-G1 proportion was analyzed. In (B) and (C), the bar graphs (mean±SD) were derived from three independent experiments. *p<0.05. FIG. 20D. Left panel: untreated B16 cells were subcutaneously injected into mice at day 1. […] Compound administration and tumor size measurement were repeated every two days from day 7 onwards. Bar graphs are shown as mean±SD (*p<0.05, n=6). FIG. 20E. Lower panels show representative images of isolated tumors. Right panel: representative H & E staining in B16 tumor section. Bar=20 μm.
# FIG. 21. Restoring apoptotic function of p53 cooperates with BRAFV600E inhibition to suppress human melanoma cell growth.
# [3] = test system: WM278, Me300 and SK-MEL37 melanoma cells; experiment: colony formation assay, Example 10, human melanoma cells; format: cell-based; details: agent alone; melanoma cell lines
# Description: FIG. 21. Restoring apoptotic function of p53 cooperates with BRAFV600E inhibition to suppress human melanoma cell growth. […] The bar graphs (mean±SD) were derived from three independent experiments. *p<0.05. Lower images show representative Annexin V/7-AAD profile and dishes, respectively. FIG. 21C. Diagrams showing how cyclinB1/cdk1 phosphorylation controls iASPP localization in interphase (interphase) or mitosis or tumor cells (mitosis/melanomas). Blue and red stars (*) indicate the C- and N-terminal contact residues and the phosphorylation status is labeled as (P). The bottom diagram summarizes the pathways that PLX4032, Nutlin3 and JNJ used to suppress melanoma cell growth.
# B16 melanoma cells = experiment: xenograft assay, B16 cells treated in vitro and injected into C57BL/6 mice; format: in vivo; details: 13 days after injection of in vitro treated B16 cells
# Experimental: At day 1, C57BL/6 mice (7-9 weeks old) were injected s.c. at flanks with 1×10^6 B16 melanoma cells in 100 μl PBS (component treated cells for FIG. 19C, untreated cells for FIGS. 19D and 20D). Component (Nutlin3 (40 mg/kg) or JNJ-7706621 (also referred to herein as “JNJ”, 30 mg/kg)) was dissolved in DMSO and i.p. administered every two days since day 3, or day 7 (no component administration for FIG. 19C). Tumor size was measured every two days with vernier caliper. Tumor volumes were calculated using the following formula: (L*W*W)/2, in which L represents the larger diameter of the tumor, and W represents the smaller diameter. On day 13 (tumor area reach ˜1.2 cm diameter in DMSO group), all mice were sacrificed and tumors were isolated and weighed.
# Mouse B16 melanoma cells are known to form highly aggressive melanoma in vivo in immune competent C57BL/6 syngeneic mice. Because regulation of p53 by iASPP and mdm2 exists in both human WM278 cells and mouse B16 cells, experiments were carried out to determine if restoring p53 function in B16 cells is able to suppress tumor growth in C57BL/6 mice in vivo. B16 cells, treated with (1) DMSO, (2) Nutlin3, (3) JNJ, or (4) Nutlin3+JNJ, were injected into the flank of 7-9 week-old female C57BL/6 mice.
# B16 melanoma = experiment: xenograft assay, untreated B16 cells, compounds given i.p.; format: in vivo, C57BL/6 mice; parameters: concentration or dose not given beside the values
# Experimental: as §1
# At day 1, C57BL/6 mice (7-9 weeks old) were injected s.c. at flanks with 1×10^6 B16 melanoma cells in 100 μl PBS (component treated cells for FIG. 19C, untreated cells for FIGS. 19D and 20D).
# [4] = test system: nuclear iASPP and p53 in B16 tumors; experiment: immunofluorescence staining of iASPP and p53 in B16 tumor sections; format: in vivo, C57BL/6 mice; details: tumor sections from i.p. treated mice
# [5] = i.p. administration from day 3 after B16 inoculation
# [6] = i.p. administration from day 7 after B16 inoculation
SMILES,apoptotic cell death (subG1) [1],apoptosis [2],suppression of cell growth [3],"tumor size and weight, of control (DMSO-treated B16 cell group) (B16 melanoma cells)",suppression of B16 melanoma growth (B16 melanoma; [5]) [%],suppression of B16 melanoma growth (B16 melanoma; [6]) [%],iASPP expression in B16 tumors [4],p53 expression in B16 tumors [4],"increase in Nutlin3-induced apoptosis ([2]; Me300 and WM278 cells, Annexin V or Sub-G1)"
COc1ccc(C2=N[C@@H](c3ccc(Cl)cc3)[C@@H](c3ccc(Cl)cc3)N2C(=O)N2CCNC(=O)C2)c(OC(C)C)c1 [Nutlin3],very low rates of apoptotic cell death,only a small percentage of cells,limited,~60%,22,5,minimal impact on iASPP expression,induced nuclear p53 expression,–
Nc1nc(Nc2ccc(S(N)(=O)=O)cc2)nn1C(=O)c1c(F)cccc1F [JNJ-7706621],–,only a small percentage of cells,limited,around 40%,36,30,clearly reduced nuclear iASPP expression,no effect on p53 expression,3-4 fold

# Source: patent publication US9880171B2, “iASPP phosphorylation and metastatic potential” (LUDWIG INSTITUTE FOR CANCER RESEARCH LTD., priority 2012, dated 2018)
